In brackets after ≈: the same amount, converted by molar mass.
Key:
[1] = Apparent permeability in dog MDCK-II cells; assay type: ADME, cell-based, Canis lupus familiaris
[2] = Solubility of compound at pH 7; assay type: physicochemical; conditions: buffer
[3] = Metabolic stability in rat hepatocytes assessed as intrinsic clearance; assay type: ADME, cell-based, Hepatocyte
[4] = Solubility of compound at pH 2; assay type: physicochemical; conditions: buffer
[5] = MRT in C57BL/6 mouse at 10 mg/kg, po or 1 mg/kg, iv; assay type: ADME, organism-based; conditions: in vivo
[6] = Clearance in C57BL/6 mouse at 10 mg/kg, po or 1 mg/kg, iv; assay type: ADME, organism-based; conditions: in vivo
[7] = Fraction unbound clearance in C57BL/6 mouse at 10 mg/kg, po or 1 mg/kg, iv; assay type: ADME, organism-based; conditions: in vivo
[8] = Oral bioavailability in C57BL/6 mouse at 10 mg/kg; assay type: ADME, organism-based; conditions: in vivo
[9] = MRT in Wistar Han rat at 0.1 mg/kg, iv; assay type: ADME, organism-based; conditions: in vivo
[10] = Clearance in Wistar Han rat at 0.1 mg/kg, iv; assay type: ADME, organism-based; conditions: in vivo
[11] = Unbound clearance in Wistar Han rat at 0.1 mg/kg, iv; assay type: ADME, organism-based; conditions: in vivo
[12] = Volume of distribution in C57BL/6 mouse at 10 mg/kg, po or 1 mg/kg, iv; assay type: ADME, organism-based; conditions: in vivo
[13] = Volume of distribution in Wistar Han rat at 0.1 mg/kg, iv; assay type: ADME, organism-based; conditions: in vivo
[14] = AUC in C57BL/6 mouse at 100 mg/kg, po measured after 8 hrs; assay type: ADME, organism-based; set-up: route oral, dose 100 mg/kg, time 8 hrs; conditions: in vivo
Dendritic cell [15] = assay: […] in human monocyte derived dendritic cell assessed as increase in IL-6 production incubated for 24 hrs by ELISA; assay type: functional, cell-based
Dendritic cell [16] = assay: […] in human monocyte derived dendritic cell assessed as increase in TNF-alpha production incubated for 24 hrs by ELISA; assay type: functional, cell-based

Papp [1] | solubility [2] | CLint [3] | solubility [4] | MRT [5] | clearance [6] | CL free [7] | bioavailability [8] | MRT [9] | clearance [10] | CL free [11] | Vd [12] | Vd [13] | AUC [14] | SMILES | Activity (Dendritic cell [15]) | Activity (Dendritic cell [16])
2.12 ×10⁻⁶ cm/s | < 2 µM | 33 µL/min/1e6 cells | – | – | – | – | – | – | – | – | – | – | – | COc1cc2c(cc1Nc1ncc(C(N)=O)c(Nc3ccccc3Br)n1)CN(C)CC2 | – | –
3.6 ×10⁻⁶ cm/s | 7 µM (≈ 2.78 µg/mL) | 28 µL/min/1e6 cells | – | – | – | – | – | – | – | – | – | – | – | COc1cc2c(cc1Nc1ncc(C(N)=O)c(NC3CCCC3)n1)CN(C)CC2 | – | –
– | 147 µM (≈ 53.1 µg/mL) | – | 160 µM (≈ 57.8 µg/mL) | – | – | – | – | – | – | – | – | – | – | COc1cc2c(cc1Nc1nccc(Nc3ccccc3)n1)CN(C)CC2 | – | –
– | 152 µM (≈ 57.1 µg/mL) | – | 179 µM (≈ 67.2 µg/mL) | – | – | – | – | – | – | – | – | – | – | COc1cc2c(cc1Nc1ncc(C)c(Nc3ccccc3)n1)CN(C)CC2 | – | –
– | 96 µM (≈ 41.2 µg/mL) | – | 157 µM (≈ 67.4 µg/mL) | – | – | – | – | – | – | – | – | – | – | COc1cc2c(cc1Nc1ncc(C(F)(F)F)c(Nc3ccccc3)n1)CN(C)CC2 | – | –
2.78 ×10⁻⁶ cm/s | 9 µM (≈ 3.93 µg/mL) | 69 µL/min/1e6 cells | – | – | – | – | – | – | – | – | – | – | – | COc1cc2c(cc1Nc1ncc(C(N)=O)c(Nc3c(C)cccc3F)n1)CN(C)CC2 | – | –
3.1 ×10⁻⁶ cm/s | – | – | – | 19.8 min | 52 mL/min/kg | 2452 mL/min/kg | 9% | 30 min | 56 mL/min/kg | 2057 mL/min/kg | 1 L/kg | 1.8 L/kg | – | COc1cc2c(cc1Nc1ncc(C(N)=O)c(Nc3ccccc3[C@H](C)OC)n1)CN(C)CC2 | – | –
2.5 ×10⁻⁶ cm/s | 92 µM (≈ 37.2 µg/mL) | 70 µL/min/1e6 cells | 166 µM (≈ 67.1 µg/mL) | 72 min | 46 mL/min/kg | 2532 mL/min/kg | 17% | 126 min | 19 mL/min/kg | 415 mL/min/kg | – | – | – | COc1cc2c(cc1Nc1ncc(C(N)=O)c(Nc3ccccc3)n1)CN(C)CC2 | – | –
0.54 ×10⁻⁶ cm/s | – | – | – | 39.6 min | 67 mL/min/kg | 792 mL/min/kg | 7.9% | 120 min | 88 mL/min/kg | 548 mL/min/kg | 29 L/kg | 65 L/kg | 102 µM·h | COc1cc2c(cc1Nc1ncc(C(N)=O)c(Nc3ccccc3CO)n1)CN(C)CC2 | – | –
2.9 ×10⁻⁶ cm/s | – | – | – | 28.8 min | 30 mL/min/kg | 2170 mL/min/kg | 13% | 78 min | 28 mL/min/kg | 1529 mL/min/kg | 61 L/kg | 2 L/kg | – | COc1cc2c(cc1Nc1ncc(C(N)=O)c(Nc3c(F)cccc3C(F)(F)F)n1)CN(C)CC2 | Dose-Dependent Effect | Dose-Dependent Effect

Reference: ChEMBL document CHEMBL4814063, “Discovery of Diaminopyrimidine Carboxamide HPK1 Inhibitors as Preclinical Immunotherapy Tool Compounds” (ACS Med Chem Lett, 2021)
